Earlier results in patent publication EP3568126B1, “[…] COMPOSITION” (Torrent Pharmaceuticals Limited, priority 2017, dated 2018).

## 3-[(1R,2R)-3-(dimethylamino)-1-ethyl-2-methylpropyl]phenol [tapentadol]
After oral dosing
  time of maximum serum concentration: around 1.25 hours
Oral administration
  administered tapentadol metabolized (first-pass metabolism): about 97%
  bioavailability: 32%
Oral formulations
  time after administration at which absorption occurs: at least 45 minutes
